From the kinase profiling compilation of Christmann-Franck et al. (2016)

Experiments:
Assay in all cases: KINOMEscan competition binding
[1] = molecular target: ABL1 (human), P00519 [E255K]
[2] = molecular target: ABL1 (human), P00519 [M351T]
[3] = molecular target: ABL1 (human), P00519 [Q252H]
[4] = molecular target: ABL1 (human), P00519 [Y253F]
ABL2 (human) = ABL2 (human) (UniProt P42684)
CAMK2A (human) = CAMK2A (human) (UniProt Q9UQM7)
CAMKK1 (human) = CAMKK1 (human) (UniProt Q8N5S9)
CLK3 (human) = CLK3 (human) (UniProt P49761)
EPHA2 (human) = EPHA2 (human) (UniProt P29317)
EPHA4 (human) = EPHA4 (human) (UniProt P54764)
EPHA4 (human), sequence (P54764 whole entry, looked up): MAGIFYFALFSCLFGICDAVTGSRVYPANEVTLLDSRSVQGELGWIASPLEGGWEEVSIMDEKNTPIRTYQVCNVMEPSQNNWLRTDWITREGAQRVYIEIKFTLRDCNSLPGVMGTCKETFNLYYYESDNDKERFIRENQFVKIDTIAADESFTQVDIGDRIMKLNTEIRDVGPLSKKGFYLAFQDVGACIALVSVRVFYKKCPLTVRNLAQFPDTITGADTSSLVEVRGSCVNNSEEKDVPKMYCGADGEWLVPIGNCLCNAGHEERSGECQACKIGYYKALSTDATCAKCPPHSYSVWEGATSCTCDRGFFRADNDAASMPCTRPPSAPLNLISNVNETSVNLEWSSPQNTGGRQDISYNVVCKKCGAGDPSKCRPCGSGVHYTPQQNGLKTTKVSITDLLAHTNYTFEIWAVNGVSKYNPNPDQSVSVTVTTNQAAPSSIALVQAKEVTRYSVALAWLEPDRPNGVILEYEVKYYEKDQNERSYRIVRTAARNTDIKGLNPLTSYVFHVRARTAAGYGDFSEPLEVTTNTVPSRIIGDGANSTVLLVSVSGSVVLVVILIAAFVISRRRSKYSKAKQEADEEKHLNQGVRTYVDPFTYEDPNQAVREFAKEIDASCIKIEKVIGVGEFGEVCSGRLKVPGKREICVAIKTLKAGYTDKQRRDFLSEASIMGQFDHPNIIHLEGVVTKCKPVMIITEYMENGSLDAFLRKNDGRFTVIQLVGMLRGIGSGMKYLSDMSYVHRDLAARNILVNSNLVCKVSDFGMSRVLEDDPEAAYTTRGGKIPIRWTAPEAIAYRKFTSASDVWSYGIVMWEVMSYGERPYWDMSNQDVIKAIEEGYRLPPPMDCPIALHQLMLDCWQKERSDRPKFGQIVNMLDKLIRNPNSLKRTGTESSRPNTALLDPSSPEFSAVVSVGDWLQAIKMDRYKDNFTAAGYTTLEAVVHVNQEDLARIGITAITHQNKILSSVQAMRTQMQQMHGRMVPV

EPHA6 (human) = EPHA6 (human) (UniProt Q9UF33)
EPHB1 (human) = EPHB1 (human) (UniProt P54762)
EPHB4 (human) = EPHB4 (human) (UniProt P54760)
FER (human) = FER (human) (UniProt P16591)
FER (human), sequence (P16591 whole entry, looked up): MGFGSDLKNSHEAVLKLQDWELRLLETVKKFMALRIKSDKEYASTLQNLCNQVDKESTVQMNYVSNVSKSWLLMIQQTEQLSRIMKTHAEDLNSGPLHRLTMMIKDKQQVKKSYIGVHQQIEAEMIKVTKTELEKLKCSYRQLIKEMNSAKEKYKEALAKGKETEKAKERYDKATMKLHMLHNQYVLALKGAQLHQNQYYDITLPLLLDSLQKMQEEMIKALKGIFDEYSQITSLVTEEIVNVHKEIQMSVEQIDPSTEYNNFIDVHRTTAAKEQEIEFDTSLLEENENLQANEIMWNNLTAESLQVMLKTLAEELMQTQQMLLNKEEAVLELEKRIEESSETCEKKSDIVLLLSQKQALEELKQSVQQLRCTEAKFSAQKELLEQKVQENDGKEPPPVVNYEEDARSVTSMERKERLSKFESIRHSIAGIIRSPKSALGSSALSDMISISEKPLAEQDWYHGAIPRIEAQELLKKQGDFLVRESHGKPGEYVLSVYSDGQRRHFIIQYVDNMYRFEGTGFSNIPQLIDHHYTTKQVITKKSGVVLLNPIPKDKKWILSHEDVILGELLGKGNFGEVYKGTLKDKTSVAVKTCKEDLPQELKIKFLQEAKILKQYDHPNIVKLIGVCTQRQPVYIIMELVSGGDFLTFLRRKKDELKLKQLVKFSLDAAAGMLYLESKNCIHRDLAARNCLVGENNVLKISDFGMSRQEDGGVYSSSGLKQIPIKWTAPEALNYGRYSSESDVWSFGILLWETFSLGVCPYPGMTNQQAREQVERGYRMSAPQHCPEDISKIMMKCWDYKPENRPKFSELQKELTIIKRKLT

FGFR1 (human) = FGFR1 (human) (UniProt P11362)
FGFR2 (human) = FGFR2 (human) (UniProt P21802)
FGFR2 (human), sequence (P21802 whole entry, looked up): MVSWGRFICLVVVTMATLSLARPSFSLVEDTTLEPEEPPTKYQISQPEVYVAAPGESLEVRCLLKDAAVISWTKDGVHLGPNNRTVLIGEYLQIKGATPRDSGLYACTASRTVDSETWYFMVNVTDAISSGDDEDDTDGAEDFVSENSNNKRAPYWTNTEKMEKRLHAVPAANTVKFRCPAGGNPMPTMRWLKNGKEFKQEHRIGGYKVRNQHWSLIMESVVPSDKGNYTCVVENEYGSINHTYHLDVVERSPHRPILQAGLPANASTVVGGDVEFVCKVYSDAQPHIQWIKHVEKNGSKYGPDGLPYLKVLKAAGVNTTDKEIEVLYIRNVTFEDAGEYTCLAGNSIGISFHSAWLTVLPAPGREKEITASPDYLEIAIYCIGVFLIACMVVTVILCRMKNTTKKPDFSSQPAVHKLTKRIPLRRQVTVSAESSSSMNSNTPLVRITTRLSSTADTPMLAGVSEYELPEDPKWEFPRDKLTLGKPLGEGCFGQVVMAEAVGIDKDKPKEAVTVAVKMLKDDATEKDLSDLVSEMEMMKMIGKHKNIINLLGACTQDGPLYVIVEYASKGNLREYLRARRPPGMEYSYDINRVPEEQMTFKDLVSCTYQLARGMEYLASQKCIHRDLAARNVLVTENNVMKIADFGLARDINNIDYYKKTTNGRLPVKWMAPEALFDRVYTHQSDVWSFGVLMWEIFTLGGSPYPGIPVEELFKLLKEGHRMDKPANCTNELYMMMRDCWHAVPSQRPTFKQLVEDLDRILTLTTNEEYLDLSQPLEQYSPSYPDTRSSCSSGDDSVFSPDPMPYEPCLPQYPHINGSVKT

FGR (human) = FGR (human) (UniProt P09769)
FLT4 (human) = FLT4 (human) (UniProt P35916)
INSR (human) = INSR (human) (UniProt P06213)
[5] = molecular target: JAK1 JH1 catalytic (human) (UniProt P23458)
KDR (human) = KDR (human) (UniProt P35968)
KIT (human) = KIT (human) (UniProt P10721)
LCK (human) = LCK (human) (UniProt P06239)
LIMK1 (human) = LIMK1 (human) (UniProt P53667)
MAP3K4 (human) = MAP3K4 (human) (UniProt Q9Y6R4)
MAP3K5 (human) = MAP3K5 (human) (UniProt Q99683)
MYLK2 (human) = MYLK2 (human) (UniProt Q9H1R3)
NEK2 (human) = NEK2 (human) (UniProt P51955)
NEK6 (human) = NEK6 (human) (UniProt Q9HC98)
NEK6 (human), sequence (Q9HC98 whole entry, looked up): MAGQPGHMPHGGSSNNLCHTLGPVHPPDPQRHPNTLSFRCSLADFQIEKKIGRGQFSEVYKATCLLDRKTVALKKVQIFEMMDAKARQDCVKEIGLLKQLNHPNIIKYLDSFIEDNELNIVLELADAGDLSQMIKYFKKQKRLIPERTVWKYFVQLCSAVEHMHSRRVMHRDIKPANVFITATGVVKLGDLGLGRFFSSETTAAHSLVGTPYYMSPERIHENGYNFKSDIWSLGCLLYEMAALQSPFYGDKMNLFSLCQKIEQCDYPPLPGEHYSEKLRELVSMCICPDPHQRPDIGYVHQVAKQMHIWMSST

NEK9 (human) = NEK9 (human) (UniProt Q8TD19)
PAK1 (human) = PAK1 (human) (UniProt Q13153)
PAK4 (human) = PAK4 (human) (UniProt O96013)
PAK4 (human), sequence (O96013 whole entry, looked up): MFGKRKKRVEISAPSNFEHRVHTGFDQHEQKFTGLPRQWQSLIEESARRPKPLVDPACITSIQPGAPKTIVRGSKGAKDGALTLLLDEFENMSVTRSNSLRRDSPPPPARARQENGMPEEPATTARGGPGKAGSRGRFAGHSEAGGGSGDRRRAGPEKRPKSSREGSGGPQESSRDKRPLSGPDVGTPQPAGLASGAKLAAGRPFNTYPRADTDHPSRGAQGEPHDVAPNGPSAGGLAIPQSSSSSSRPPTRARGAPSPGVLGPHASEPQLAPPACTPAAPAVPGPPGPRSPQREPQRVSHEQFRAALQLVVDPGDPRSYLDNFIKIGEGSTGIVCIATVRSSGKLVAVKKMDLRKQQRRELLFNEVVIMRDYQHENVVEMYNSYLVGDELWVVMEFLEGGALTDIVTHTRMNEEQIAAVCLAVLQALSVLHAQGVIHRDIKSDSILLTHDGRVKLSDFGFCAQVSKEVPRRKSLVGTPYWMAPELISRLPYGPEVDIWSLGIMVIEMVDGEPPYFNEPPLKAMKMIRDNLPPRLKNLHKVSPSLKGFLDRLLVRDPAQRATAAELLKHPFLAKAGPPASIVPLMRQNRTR

PAK6 (human) = PAK6 (human) (UniProt Q9NQU5)
PAK6 (human), sequence (Q9NQU5 whole entry, looked up): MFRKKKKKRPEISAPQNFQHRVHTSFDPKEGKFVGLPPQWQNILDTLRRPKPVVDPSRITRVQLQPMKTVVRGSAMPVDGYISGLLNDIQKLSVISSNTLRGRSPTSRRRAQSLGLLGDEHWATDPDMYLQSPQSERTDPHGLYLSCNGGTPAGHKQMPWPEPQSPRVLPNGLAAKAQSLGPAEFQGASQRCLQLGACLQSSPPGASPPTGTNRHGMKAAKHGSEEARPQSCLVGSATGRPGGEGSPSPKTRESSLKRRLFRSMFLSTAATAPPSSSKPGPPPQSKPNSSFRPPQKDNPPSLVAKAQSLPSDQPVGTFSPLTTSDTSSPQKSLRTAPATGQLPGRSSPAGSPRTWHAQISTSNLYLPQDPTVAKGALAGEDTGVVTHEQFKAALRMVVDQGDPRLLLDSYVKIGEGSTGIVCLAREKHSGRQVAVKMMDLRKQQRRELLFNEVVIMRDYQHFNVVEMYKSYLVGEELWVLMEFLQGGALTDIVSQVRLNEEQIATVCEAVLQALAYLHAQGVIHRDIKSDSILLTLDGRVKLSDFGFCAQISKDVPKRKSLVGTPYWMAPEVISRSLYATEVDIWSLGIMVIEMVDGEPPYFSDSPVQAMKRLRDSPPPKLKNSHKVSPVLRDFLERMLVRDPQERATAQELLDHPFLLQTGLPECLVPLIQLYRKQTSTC

PHKG1 (human) = PHKG1 (human) (UniProt Q16816)
PIM1 (human) = PIM1 (human) (UniProt P11309)
PIM1 (human), sequence (P11309 whole entry, looked up): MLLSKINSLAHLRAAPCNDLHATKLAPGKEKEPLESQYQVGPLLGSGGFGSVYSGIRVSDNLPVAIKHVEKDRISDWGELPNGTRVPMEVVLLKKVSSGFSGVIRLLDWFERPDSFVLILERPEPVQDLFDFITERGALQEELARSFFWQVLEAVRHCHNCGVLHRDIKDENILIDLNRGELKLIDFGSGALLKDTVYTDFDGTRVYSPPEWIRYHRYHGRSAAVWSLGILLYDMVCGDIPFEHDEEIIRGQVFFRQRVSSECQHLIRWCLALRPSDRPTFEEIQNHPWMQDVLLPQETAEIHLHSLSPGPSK

PKMYT1 (human) = PKMYT1 (human) (UniProt Q99640)
PTK2 (human) = PTK2 (human) (UniProt Q05397)
RPS6KA3 KD1 (human) = RPS6KA3 KD1 (human) (UniProt P51812)
SRC (human) = SRC (human) (UniProt P12931)
STK10 (human) = STK10 (human) (UniProt O94804)
STK16 (human) = STK16 (human) (UniProt O75716)
STK17B (human) = STK17B (human) (UniProt O94768)

Measured: Kd

CAMKK1 (human), sequence (Q8N5S9 whole entry, looked up): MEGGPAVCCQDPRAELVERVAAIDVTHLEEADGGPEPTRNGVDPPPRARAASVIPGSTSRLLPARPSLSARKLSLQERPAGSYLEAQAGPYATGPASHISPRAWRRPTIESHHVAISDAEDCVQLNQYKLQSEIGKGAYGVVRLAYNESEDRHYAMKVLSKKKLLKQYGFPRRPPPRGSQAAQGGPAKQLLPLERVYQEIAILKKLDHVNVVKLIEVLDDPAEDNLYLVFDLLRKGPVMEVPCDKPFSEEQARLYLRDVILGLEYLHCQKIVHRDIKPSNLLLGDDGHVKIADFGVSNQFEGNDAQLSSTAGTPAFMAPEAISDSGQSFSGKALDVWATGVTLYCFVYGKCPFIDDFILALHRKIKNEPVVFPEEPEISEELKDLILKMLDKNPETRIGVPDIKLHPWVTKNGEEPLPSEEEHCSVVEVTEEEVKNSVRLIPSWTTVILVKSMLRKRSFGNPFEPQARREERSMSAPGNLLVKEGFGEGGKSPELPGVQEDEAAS

O=C1c2ccccc2-c2n[nH]c3cccc1c23
0.51 µM: STK16 (human)
1.9 µM: FGFR2 (human)
> 10 µM: all other assays above

Oc1ccc(-c2nc(-c3ccc(F)cc3)c(-c3ccncc3)[nH]2)cc1
> 10 µM: all assays above
